# Experimental data as given in publication doi:10.1101/2025.05.02.651913 (bioRxiv, 2025).
# Test system: MPXV strain hMPXV/USA/MA001/2022 (Lineage B.1, Clade IIb)
# Format: cell-based, Mpox virus (MPXV)
row,Molecule,Duplicate of Duplicate of Hits: No CPE
1,"C=CC(=O)Nc1cc2c(Nc3ccc(OCc4ccccn4)c(Cl)c3)ncnc2cc1OCCN1CCOCC1 [MC-Tuxobertinib, Tuxobertinib]",1
2,"COc1cc2ncnc(Nc3ccc(F)c(Cl)c3)c2cc1OCCCN1C[C@@H]2OCCO[C@@H]2C1.CS(=O)(=O)O.CS(=O)(=O)O.O [MC-Larotinib (mesylate hydrate), Larotinib (mesylate hydrate)]",1
3,"CN(C)C/C=C/C(=O)Nc1cc2c(Nc3ccc(F)c(Cl)c3)ncnc2cc1O[C@H]1CCOC1 [NKIL-Afatinib (BIBW2992), Afatinib]",1
4,"C=CC(=O)Nc1ccc2ncnc(Nc3ccc(OCc4cccc(F)c4)c(Cl)c3)c2c1.Cc1ccc(S(=O)(=O)O)cc1 [NKIL-AST-1306, Allitinib tosylate]",1
5,"C=CC(=O)Nc1cc(Nc2nccc(-c3c4n(c5ccccc35)CCCC4)n2)c(OC)cc1N(C)CCN(C)C [MC-Oritinib, Oritinib]",1
6,SBI-581 [MC-SBI-581],1
7,"Cc1c(CN2CCN(S(C)(=O)=O)CC2)sc2c(N3CCOCC3)nc(-c3cnc(N)nc3)nc12 [MC-GNE-477, GNE-477]",1
8,"Cn1nccc1Nc1nccc(-c2cc3c(s2)C(C)(C)N(CCN2CCOCC2)C3=O)n1 [MC-Temuterkib, Temuterkib]",1
9,"Cc1cc(C(=O)Nc2nc3cccc(Cl)c3n2[C@@H]2CCCCN(C(=O)/C=C/CN(C)C)C2)ccn1 [MC-Nazartinib, Nazartinib]",1
10,"C=CC(=O)N[C@@H]1CN(c2nc(Nc3cn(C)nc3OC)c3ncn(C)c3n2)C[C@H]1F [MC-Mavelertinib, Mavelertinib]",1
11,"COc1ncc(-c2ccc3nccc(C#CCN4CCN(S(C)(=O)=O)CC4)c3c2)cc1NS(=O)(=O)c1ccc(F)cc1F [MC-NSC781406, NSC781406]",1
12,"C=CC(=O)Nc1cccc(Oc2nc(Nc3ccc(N4CCN(C)CC4)cc3)nc3ccoc23)c1 [MC-Poseltinib, Poseltinib]",1
13,(S)-Sunvozertinib [MC-(S)-Sunvozertinib],1
14,JNK-IN-7 [MC-JNK-IN-7],1
15,JAK-IN-23 [MC-JAK-IN-23],1
16,"CCOc1cc2ncc(C#N)c(Nc3ccc(OCc4ccccn4)c(Cl)c3)c2cc1NC(=O)/C=C/CN(C)C.O=C(O)/C=C\C(=O)O [MC-Neratinib (maleate), Neratinib (maleate)]",1
17,"O=C1Nc2cc3[nH]nc(-c4ccncc4)c3cc2CN1Cc1ccccc1 [MC-KO-947, KO-947]",1
18,"C=CC(=O)Nc1cc(Nc2nccc(-c3cn(C)c4ccccc34)n2)c(OC)cc1OCCN(C)C [MC-Rezivertinib, Rezivertinib]",1
19,ZX-29 [MC-ZX-29],1
20,"O=C(Nc1ccc2[nH]nc(-c3ccncc3)c2c1)[C@@H]1CCN(CC(=O)N2CCN(c3ccc(-c4ncccn4)cc3)CC2)C1 [MC-SCH772984, SCH772984]",1
21,"O=C(NOCCO)c1cc(CN2OCCCC2=O)c(F)c(F)c1Nc1ccc(I)cc1F [MC-RO4987655, RO4987655]",1
22,"Cc1cc(C(=O)NOCCO)c(Nc2ccc(I)cc2F)n(C)c1=O [NKIL-AZD8330, AZD8330]",1
23,"CCS(=O)(=O)c1cc(Nc2ncc(F)c(N(Cc3ccccc3C#N)c3cc(CO)ccc3C)n2)ccc1N1CCN(C)CC1 [MC-AZ13705339, AZ13705339]",1

row,Molecule,Duplicate of Duplicate of Hits: No CPE
1,"O=C(N/N=C/c1c(O)ccc2ccccc12)c1cc(-c2ccc3ccccc3c2)n[nH]1 [MC-SKI-I, SKI-I]",1
2,"CCOc1cc2ncc(C#N)c(Nc3ccc(OCc4cccc(F)c4)c(Cl)c3)c2cc1NC(=O)/C=C/CN(C)C [MC-HKI-357, HKI-357]",1
3,"C=CC(=O)Nc1cc(Nc2nccc(-n3cc(CN(C)C)c(-c4ccccc4)n3)n2)c(OC)cc1N1CCOCC1 [MC-Lazertinib, Lazertinib]",1
4,"C=CC(=O)Nc1cccc(-n2c(=O)cc(C)c3cnc(Nc4ccc(OCCN(C)C)cc4OC)nc32)c1.O=C(O)C(F)(F)F [MC-EGFR-IN-1 (TFA), EGFR-IN-1 (TFA)]",1
5,"C=CC(=O)Nc1cc(Nc2nccc(-c3cn(C4CC4)c4ccccc34)n2)c(OC)cc1N(C)CCN(C)C [MC-Almonertinib, Almonertinib]",1
6,"C=CCn1cc(-c2ccc(NC(=O)Nc3cc(C(C)(C)C)on3)cc2)c2c(N)ncnc21 [MC-FLT3-IN-4, FLT3-IN-4]",1
7,"Nc1ccc(-c2ccc3ncc4ccc(=O)n(-c5cccc(C(F)(F)F)c5)c4c3c2)cn1 [NKIL-Torin 2, Torin 2]",1
8,"CNc1ncc2cc(-c3cc(NC(=O)NCCC(C)(C)C)c(F)cc3C)c(C)nc2n1 [MC-LY3009120, LY3009120]",1
9,"C=CC(=O)Nc1cc(Nc2nccc(-c3c[nH]c4ccccc34)n2)c(OC)cc1N(C)CCN(C)C [MC-AZ-5104, AZ-5104]",1
10,FGFR1/DDR2 inhibitor 1 [MC-FGFR1/DDR2 inhibitor 1],1
11,"C=CC(=O)N1CCC[C@H](n2c(=O)n(-c3ccc(Oc4ccccc4)cc3)c3c(N)ncnc32)C1 [MC-ONO-4059 (analog), ONO-4059 (analog)]",1
12,"COc1cc2ncnc(Nc3cccc(I)c3)c2cc1OC [MC-AG1557, AG1557]",1
13,"COc1cc2ncnc(Nc3cccc(Br)c3)c2cc1OC [MC-PD153035, PD153035]",1
14,"C=CC(=O)Nc1cccc(Oc2nc(Nc3ccc(N4CCN(C)CC4)cc3OC)ncc2Cl)c1 [NKIL-WZ4002, WZ4002]",1
15,"CCN1CCN(Cc2ccc(NC(=O)c3ccc(C)c(/C=C/c4cnc5[nH]ccc5c4OC)c3)cc2C(F)(F)F)CC1 [MC-HG6-64-1, HG6-64-1]",1
16,"Cc1c[nH]c2nc(Nc3ccc(N4CCN(C)CC4)c(F)c3)nc(-c3cccc(CC#N)c3)c12 [NKIL-SGI-7079, SGI-7079]",1
17,"C=CC(=O)N1C[C@H](COc2nc(Nc3cnn(C)c3)nc3[nH]cc(Cl)c23)[C@@H](OC)C1 [MC-PF-06459988, PF-06459988]",1
18,"COc1cc2ncnc(Nc3ccc(O)c(Br)c3)c2cc1OC [NKIL-WHI-P154, WHI-P154]",1
19,"C=CC(=O)Nc1cccc(Sc2nc(Nc3ccc(N4CCN(C)CC4)cc3)ncc2Cl)c1 [NKIL-WZ8040, WZ8040]",1
20,C#Cc1cccc(Nc2ncnc3cc(OCCOC)c(OCCOC)cc23)c1 [Erlotinib],1
21,"C=CC(=O)Nc1cc(C)ccc1Nc1nc(Nc2cc(OC)ncc2C)ncc1C(F)(F)F [MC-CC-90003, CC-90003]",1
22,"CN(C)C/C=C/C(=O)Nc1cc2c(Nc3ccc(F)c(Cl)c3)ncnc2cc1O[C@H]1CCOC1.O=C(O)/C=C\C(=O)O.O=C(O)/C=C\C(=O)O [MC-Afatinib (dimaleate), Afatinib (dimaleate)]",1
